Laboratory results taken from the supplement of paper PMC10307832.

Experiments:
Assay in all cases: relative viability (nuclei count vs DMSO), 5 days (fraction); higher = more cells survive
COR-L23 = system: COR-L23
Summary of the method: (§1)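 Lung cancer cell lines in 1536-well plates were dosed by pin tool the day after seeding, either with one drug alone or with a fixed anchor-drug dose plus five library-drug doses (not always all listed) in √10 steps. After 5 days, cells were fixed and their nuclei stained in one step (final 0.05% Triton X-100, 1% formaldehyde, 1 ug/ml Hoechst), then counted on 4× images. Relative viability is the nuclei count in treated wells divided by that in vehicle wells. Values are medians of duplicate plates.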

HOP-62 = system: HOP-62
Summary of the method: as §1

UMC-11 = system: UMC-11
Summary of the method: as §1

NCI-H1755 = system: NCI-H1755
Summary of the method: as §1

NCI-H358 = system: NCI-H358
Summary of the method: as §1

COR-L 105 = system: COR-L 105
Summary of the method: as §1

NCI-H647 = system: NCI-H647
Summary of the method: as §1

NCI-H1734 = system: NCI-H1734
Summary of the method: as §1

NCI-H1395 = system: NCI-H1395
Summary of the method: as §1

HARA = system: HARA
Summary of the method: as §1

NCI-H1792 = system: NCI-H1792
Summary of the method: as §1

O=c1cc(N2CCOCC2)oc2c(-c3cccc4c3sc3ccccc34)cccc12 + Cc1nc(Nc2ncc(C(=O)Nc3c(C)cccc3Cl)s2)cc(N2CCN(CCO)CC2)n1 [Dasatinib] (partner 0.075 µM)
relative viability (COR-L23; first compound 0.01 µM): 0.534
relative viability (COR-L23; first compound 0.03162 µM): 0.496
relative viability (COR-L23; first compound 0.1 µM): 0.566
relative viability (COR-L23; first compound 0.3162 µM): 0.446
relative viability (COR-L23; first compound 1 µM): 0.512
relative viability (HOP-62; first compound 0.01 µM): 0.676
relative viability (HOP-62; first compound 0.03162 µM): 0.676
relative viability (HOP-62; first compound 0.1 µM): 0.672
relative viability (HOP-62; first compound 0.3162 µM): 0.639
relative viability (HOP-62; first compound 1 µM): 0.616
relative viability (UMC-11; first compound 0.01 µM): 0.452
relative viability (UMC-11; first compound 0.03162 µM): 0.471
relative viability (UMC-11; first compound 0.1 µM): 0.487
relative viability (UMC-11; first compound 0.3162 µM): 0.439
relative viability (UMC-11; first compound 1 µM): 0.527
relative viability (NCI-H1755; first compound 0.01 µM): 0.511
relative viability (NCI-H1755; first compound 0.03162 µM): 0.412
relative viability (NCI-H1755; first compound 0.1 µM): 0.471
relative viability (NCI-H1755; first compound 0.3162 µM): 0.416
relative viability (NCI-H1755; first compound 1 µM): 0.415
relative viability (NCI-H358; first compound 0.01 µM): 0.179
relative viability (NCI-H358; first compound 0.03162 µM): 0.145
relative viability (NCI-H358; first compound 0.1 µM): 0.201
relative viability (NCI-H358; first compound 0.3162 µM): 0.182
relative viability (NCI-H358; first compound 1 µM): 0.167
relative viability (COR-L 105; first compound 0.01 µM): 0.316
relative viability (COR-L 105; first compound 0.03162 µM): 0.327
relative viability (COR-L 105; first compound 0.1 µM): 0.314
relative viability (COR-L 105; first compound 0.3162 µM): 0.372
relative viability (COR-L 105; first compound 1 µM): 0.304
relative viability (NCI-H647; first compound 0.01 µM): 0.239
relative viability (NCI-H647; first compound 0.03162 µM): 0.18
relative viability (NCI-H647; first compound 0.1 µM): 0.0909
relative viability (NCI-H647; first compound 0.3162 µM): 0.224
relative viability (NCI-H647; first compound 1 µM): 0.211
relative viability (NCI-H1734; first compound 0.01 µM): 0.498
relative viability (NCI-H1734; first compound 0.03162 µM): 0.517
relative viability (NCI-H1734; first compound 0.1 µM): 0.49
relative viability (NCI-H1734; first compound 0.3162 µM): 0.439
relative viability (NCI-H1734; first compound 1 µM): 0.415
relative viability (NCI-H1395; first compound 0.01 µM): 0.422
relative viability (NCI-H1395; first compound 0.03162 µM): 0.393
relative viability (NCI-H1395; first compound 0.1 µM): 0.407
relative viability (NCI-H1395; first compound 0.3162 µM): 0.367
relative viability (NCI-H1395; first compound 1 µM): 0.454
relative viability (HARA; first compound 0.01 µM): 0.208
relative viability (HARA; first compound 0.03162 µM): 0.282
relative viability (HARA; first compound 0.1 µM): 0.276
relative viability (HARA; first compound 0.3162 µM): 0.268
relative viability (HARA; first compound 1 µM): 0.243
relative viability (NCI-H1792; first compound 0.01 µM): 0.857
relative viability (NCI-H1792; first compound 0.03162 µM): 0.663
relative viability (NCI-H1792; first compound 0.1 µM): 0.856
relative viability (NCI-H1792; first compound 0.3162 µM): 0.996
